From PMC6013238, “Development of novel NEMO-binding domain mimetics for inhibiting IKK/NF-κB activation” (PLoS Biology, 2018) come the findings set out here.

Molecules are shown by their SMILES. Entries after “also recorded” stand apart in the source; their conditions may differ.

Assay [1] has as its system noncanonical NF-κB pathway. Briefly: Noncanonical NF-κB pathway, anti-LTβR-stimulated Raw 264.7 cells (p100 to p52 processing). The assay is classed as cell-based, mouse. Particulars: 100 μM, 30 min; anti-LTβR 8 h. The method, then:
(§1) To determine whether the novel NBD mimetics target the NEMO-IKKβ interaction in vivo, co-immunoprecipitations were performed using extracts from Raw 264.7 macrophages (Fig 5A). […] No interaction between NEMO and TNF receptor-associated factor 2 (TRAF2) or IκBα was observed under these conditions. […] The levels of phosphorylated IKK complex, IκBα, and p65 in response to TNF-α and LPS were all reduced by SR12343 (Fig 5D & 5E). […] However, there were no changes in the levels of phospho-c-Jun N-terminal kinase (p-JNK), p-p38MAPK, total JNK, and p38MAPK by treatment with SR12343 (150 μM) in response to TNF-α or LPS stimulation (Fig 5G & 5H). […]
(§2) (A) Co-IP analysis detecting the IKKβ/NEMO interaction. […] NEMO-binding products were then analyzed for levels of IKKβ, IKKα, TRAF2, and IκBα (negative control), and levels of NEMO were used as a loading control (left panel). […] The levels of IKKβ-FLAG binding to GST-NEMO were determined by western blot analysis with GST-NEMO used as a loading control. […] Cell lysates were analyzed for activity of the IKK/NF-κB signaling pathway including activation of IKK complex, IκBα, and p65. […] Cell lysates were harvested and analyzed for activation of noncanonical NF-κB signaling, the processing of p100 to p52. […]

For a further assay, the system named is JNK/p38MAPK signaling. Briefly: Western blot of JNK and p38MAPK phosphorylation in Raw 264.7 cells. Format: cell-based, mouse. To be noted: 150 μM; TNF-α or LPS stimulation. The protocol:
as §1, §2
(In western blotting, separated proteins are transferred to a membrane and probed.)

In another assay the target is T1, IKKβ/NEMO interaction (Mus musculus, UniProt O88522).
T1 construct: Co-immunoprecipitation of endogenous IKKβ and NEMO; endogenous in cells; host or cells: Raw 264.7
The assay is described as follows: Co-immunoprecipitation of endogenous IKKβ and NEMO in Raw 264.7 cells. The assay is classed as cell-based. To be noted: 100 μM mimetics, 8K-NBD 400 μM, 30 min. The method, then: as §1, §2

For the next assay, the system named is Ercc1−/Δ mice. Briefly: Chronic treatment of Ercc1−/Δ mice (health span). The assay is classed as in vivo, mouse. To be noted: preliminary experiments. The text has this:
Thus, these novel NBD mimetics could be used not only for treatment of inflammatory and degenerative diseases but also for aging.

Assay [2] concerns phosphorylated IKK complex, IκBα and p65. Briefly: Western blot of IKK/NF-κB signaling in Raw 264.7 cells (TNF-α or LPS). Format: cell-based, mouse. Particulars: 150 μM (S2A Fig: 0-150 μM), 30 min; TNF-α 10 ng/ml or LPS 1 μg/ml 10 min. The protocol: as §1, §2

T1 sequence (O88522 whole entry): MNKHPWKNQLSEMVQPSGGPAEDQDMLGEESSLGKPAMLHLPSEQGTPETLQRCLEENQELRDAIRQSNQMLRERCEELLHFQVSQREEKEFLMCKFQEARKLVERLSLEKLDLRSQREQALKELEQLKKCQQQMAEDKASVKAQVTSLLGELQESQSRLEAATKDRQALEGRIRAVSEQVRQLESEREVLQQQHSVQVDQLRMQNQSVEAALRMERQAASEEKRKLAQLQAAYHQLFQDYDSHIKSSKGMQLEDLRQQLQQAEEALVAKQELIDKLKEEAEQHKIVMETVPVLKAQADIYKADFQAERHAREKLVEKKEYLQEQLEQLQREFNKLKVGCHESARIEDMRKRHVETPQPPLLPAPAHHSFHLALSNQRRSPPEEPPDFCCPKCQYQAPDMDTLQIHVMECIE

With `O=C(CNc1ccc(Cl)cn1)NCCc1cccc(Br)c1` [SR12343], the “Activation of noncanonical NF-κB pathway (p100 to p52 processing)” value in assay [1] is listed as “no effect”. Also, the “Levels of p-JNK, p-p38MAPK, total JNK and p38MAPK” value in the assay on JNK/p38MAPK signaling is reported as “no changes”. For the same molecule, the “IKKβ-NEMO interaction (Co-IP)” value on IKKβ/NEMO interaction is “most effective”. For the same molecule, the Health span entry with Ercc1−/Δ mice is given as “extended health span”. The “Levels of phosphorylated IKK complex, IκBα and p65” value in assay [2] is “inhibited phosphorylation of IKKα/β and p65 and prevented IκBα from degradation; also recorded: all reduced”.
